Data published in patent publication US20060178389A1, “Use of siramesine in the treatment of cancer” (priority 2003, published 2006).

Tests used:
[1] = system: Tumor cells protected by ectopic expression of Bcl-2; experiment: Killing of tumor cells with ectopic expression of Bcl-2; assay type: cell-based; settings: cells protected against most other anti-cancer drugs by ectopic expression of Bcl-2
Text: (§1) Murine fibrosarcoma cells WEHI-S, Wn902, Wn912, and WEHI-R4 are normal, vector control, Hsp70 overexpressing, and hTNF resistant cells, respectively. Other cell types tested include: Human breast cancer cell types MCF7-S1 and MDA-MB-468, and non-tumorigekic immortalized breast epithelial cells HBL100. MCF7 casp3.1 and −3.3 and neo2 are single cell clones expressing caspase3 and vector. MCF7 pCEP, -Bcl2 WT, -Bcl2 NT, -Bcl2 Acta, and -Bcl2 Cb5 are single cell clones expressing vector, wildtype Bcl2, cytoplasma localized Bcl2, mitochondria localized Bcl2, and ER localized Bcl2 (Maria Høyer Hansen, Apoptosis Laboratory, Danish Cancer Society). Human neuroblastoma cell line SK-N-MC cells (ATCC, USA). […]
(§2) Cell viability was measured using the MTT reduction assay. Conversion of the tetrazolium salt 3-(4,5-dimethylthiazole-2-yl)-2,5-diphenyltetrasodiumbromide (MTT, SIGMA-Aldrich) into the blue-colored formazan product was assessed spectrophotometrically by absorption at 570 nm using a Versamax microplate reader (Molecular Devices). The survival rate was determined as the percentage of untreated cells or inhibitor-treated cells: Cells were seeded into 96-well plate, containing 200 μL media, and treated the following day with drugs. The effect on cell viability was assessed 24-60 h after drug addition by removal of 100 μL media and addition of 25 μL MTT solution (1 mg/mL in PBS, sterile filtered). […]

[2] = system: lysosomal cathepsins; experiment: Release of lysosomal cathepsins (immunostaining of cathepsin B and L, purified lysosomes, cathepsin inhibitors); assay type: cell-based
Text: (§3) The following protease inhibitors were used: zVAD-fmk, DEVD-fmk (Bachem Bubendorf, Switzerland), DEVD-CHO (Neosystems, Strasbourg, France), LEHD-CHO, zFA-fmk (Enzyme System Products, Livermore, Calif.), CA-074-Me (Peptides International, Louisville, Ky.), APC1138 (Celera Applied Biosystems, Foster City, Calif., USA),. Pepstatin A, PD150606, and calpain inhibitor I (CI) (Calbiochem, La Jolla, Calif.), TPCK (Boehringer Mannheim), pefabloc (AEBSF) (Roche Diagnostics, DK).
To measure cytosolic cystein cathepsin enzyme activity, subconfluent cells seeded in 24-well plates were treated with an extraction buffer (250 mM sucrose, 20 mM HEPES, 10 mM KCl, 1.5 mM MgCl2, 1 mM EDTA, 1 mM EGTA, 1 mM pefablock; pH 7.5) containing 20 μg/mL digitonin for 12-15 min on ice. To measure total cellular cystein cathepsin enzyme activity, cells were treated with the above extraction buffer containing 200 μg/mL digitonin for 12-15 min on ice. […]
Cells were exposed to the lysomotropic weak base and metachromatic fluorochrome acridine orange (AO, Molecular Probes) that accumulates in acidic compartments. […] Cells were either evaluated using an inverted Olympus microscope IX-70 or detached from the substratum and analyzed by flow cytometry using a FACSort (Becton Dickinson, San Jose, Calif.) with an argon ion laser with an output wavelength of 488 nm and analyzed using CELLQuest software. […]

[3] = system: N1H3T3 murine fibroblasts transduced with v-Ha-ras or c-src; experiment: Sensitivity of fibroblasts towards Siramesine after oncogenic transformation; assay type: cell-based; settings: upon oncogenic transformation by ras or src
Text: as §1, §2

[4] = system: WEHI-R4 cells
Procedure: WEHI-R4 cells (5×10^6) were implanted subcutaneously in the back of immunocompetent female BALB/c mice. Siramesine treatment commenced two days prior to tumor implant. Mice were divided into groups (5-9/group) and administered peroral 200 μL 1) vehicle (0.5% methylcellulose 15 in 0.9% NaCl solution), 2) 100 mg/kg/day Siramesine in suspension (in 0.5% methylcellulose 15 in 0.9% NaCl solution) 7 days per week. For combinational in vivo studies, 50 mg/kg siramesine was administered 7 days/week in combination with a single dose of etoposide (i.p.) up to 30 mg/kg (administered on day one). Tumor volumes were estimated by the use of a caliper. The effect of the drugs on the tumor growth was monitored over 14-21 days before the mice were sacrificed.

[5] = system: p53; experiment: p53 activation; assay type: cell-based
[6] = system: effector caspase; experiment: Mode of cell death: nuclear morphology, caspase inhibitors, caspase 3/7-like activity; assay type: cell-based
Text: as §3
The cell death mode was assessed by the type of nuclear condensation and performed by hoechst staining (cell permeable Hoechst 33342, SIGMA-Aldrich) of drug-treated cells. Non cell permeable Sytox Green (Molecular Probes) was used to assay loss of membrane integrity and compared with nuclear morphological changes observed with Hoechst. Cells were incubated with 10.000× dilution of 25 mg/mL hoechst and /or 10.000× dilution of 5 mM sytox green for 5 min at 37° C. where after type of nuclear condensation and possible co-stain was analyzed using an inverted Olympus microscope IX-70.
To measure cytosolic cystein cathepsin enzyme activity, subconfluent cells seeded in 24-well plates were treated with an extraction buffer (250 mM sucrose, 20 mM HEPES, 10 mM KCl, 1.5 mM MgCl2, 1 mM EDTA, 1 mM EGTA, 1 mM pefablock; pH 7.5) containing 20 μg/mL digitonin for 12-15 min on ice. […]

[7] = system: WEHI-S cells; experiment: Induction of cell death in combination with chemotherapeutics; assay type: cell-based, murine; settings: together with etoposide, doxorubicin, staurosporin, vincristine and tamoxifen
Text: as §1, §2

[8] = system: WEHI-S cells; experiment: Induction of apoptosis compared with reference sigma ligands, WEHI-S; assay type: cell-based, murine; settings: versus Haloperidol and pentazocine
Text: as §1, §2

[9] = system: cultured tumor cell lines originating from tumors of the prostate, breast and cervix; experiment: Induction of programmed cell death in cultured tumor cell lines (MTT / LDH release); assay type: cell-based, human; settings: dose dependent, tumor cell lines of various origins incl. prostate
Text: as §1, §2

[10] = system: MCF7 cells; experiment: Induction of apoptosis compared with reference sigma ligands, MCF7; assay type: cell-based, human; settings: versus Haloperidol and pentazocine
Text: as §1, §2

Compound: Fc1ccc(-n2cc(CCCCN3CCC4(CC3)OCc3ccccc34)c3ccccc32)cc1 [Siramesine, 1′-[4-[1-(4-fluorophenyl)-1H-indole-3-yl]-1-butyl]-spiro[isobenzofuran-1(3H)4′-piperidine]]
- killing of Bcl-2 expressing tumor cells [1]: effectively killed
- effect of pharmacological cathepsin inhibitors on siramesine-induced death [2]: can attenuate the death
- release of lysosomal cathepsins into the cytosol ([2]; immunohistochemical staining of cathepsin B and L, in vitro release from purified lysosomes): release of lysosomal cathepsins into the cytosol seems to be involved in the execution of the death process
- sensitivity of cells towards Siramesine [3]: increased
- effect on tumor growth ([4]; BALB/c mice, siramesine alone, peroral): anti-tumorigenic effect
- effect on tumor growth, combination with etoposide ([4]; BALB/c mice, siramesine and etoposide versus groups single-treated): combinational effect
- tolerability in vivo ([4]; mouse, in vivo): well tolerated
- activation of p53 [5]: does not activate p53
- effector caspase activation [6]: absence of effector caspase activation
- mode of death ([6]; based on nuclear morphological changes and absence of protection by pharmacological caspase inhibitors): caspase-independent
- interaction with chemotherapeutics in induction of cell death [7]: synergistic
- potency as inducer of apoptosis versus reference sigma ligands [8]: significantly more potent inducer of apoptosis than Haloperidol and pentazocine
- induction of programmed cell death [9]: effectively induces programmed cell death
- potency as inducer of apoptosis versus reference sigma ligands [10]: significantly more potent inducer of apoptosis than Haloperidol and pentazocine
